Like-named read-outs stand apart in the source and are kept apart here.

The subject of data set [1] is ovariectomized (OVX) rats. As to the kind of experiment: Serum cholesterol level in ovariectomized (OVX) rats after 4 weeks dosing. Format: in vivo, rat. The conditions noted are these: OVX rats, Table 4. The source says: Estimation of Effects to Cholesterol and Bone
Compounds were given p.o. to female rats for 4 or 5 weeks daily. At the end a blood sample was taken. Serum was separated by centrifugation and frozen until analyzed for total amount of cholesterol. Bone samples were taken from vertebra and tibia. Physical strength of the bones was studied as described by Peng et al, 1994.

The test system of another data set is MCF-7 cells. As to the kind of experiment: cells. Format: cell-based. The conditions noted are these: for Emax / cytotoxicity at 10 µM / inhibition at 1 µM: Homo sapiens, MCF7, 96 h; for Emax: read-out: Maximal Agonism (% of E2); for cytotoxicity at 10 µM / Maximal Cell Kill (% fraction of dead cells): 10 μmol/l; for cytotoxicity at 10 µM: read-out: Maximal Cell Kill (% fraction of dead cells); for inhibition at 1 µM: read-out: Antagonism at 1 μM (% of full antagonism). As for the experimental part:
Evaluation of Estrogenic and Antiestrogenic Properties of Compounds in MCF-7 Cell Growth Experiments in Vitro
For experiments involving hormone or anti-hormone treatment, the cells in exponential growth phase were precultivated in the absence of estradiol for one day. […] After the incubation period the medium was removed. The exposure to study drugs was started immediately by adding fresh medium with 5% stripped serum. Half of the cells were grown with estradiol, half without estradiol. Study compounds (dissolved in ethanol in 0.01 M concentration and diluted with the growth medium as appropriate) were added. The final concentrations of the compounds were 1, 10, and 100 nM, and 1 and 10 μM. The cells were incubated for four days.
This method allows evaluation of estrogenicity based on the ability of the compounds to stimulate the growth of the estrogen-dependent cells in the absence of estradiol.
Estrogenicity was estimated by comparing the maximal growth stimulus (at any concentration) of study compound as percent from growth stimulus by estradiol (100% stimulus). […] At high concentrations molecules may also show toxicity. Toxicity was estimated as the fraction of dead cells (i.e. 100% means that all cells have died during the exposure).

A short description of data set [2]: Overall hormonal profile summarised from Tables 2, 3 and 4.
The mark [3] stands for this setting: Without estradiol (E2), maximal growth stimulus at any concentration, 4 days.

`CN(C)CCOc1ccc(/C(=C(/CCCl)c2ccccc2)c2ccc(Cl)cc2)cc1` [No. 3, (E)-(2-{4-[4-Chloro-1-(4-chlorophenyl)-2-phenylbut-1-enyl]phenoxy}ethyl)-dimethylamine]: the “Effect on cholesterol (in words)” value in data set [1] was “decrease cholesterol”. The “Killing of MCF-7 cells at the highest investigated concentration (in words)” value in the data set with MCF-7 cells (10 μM, compounds with weak hormonal activity) is listed as “kill MCF-7 cells (human breast cancer cells) effectively”. In data set [2], the “Estrogenic and antiestrogenic action (in words)” value was “weak estrogenic and no antiestrogenic action”.
As for `OCCOc1cccc(/C(=C(/CCCl)c2ccccc2)c2ccccc2)c1` [No. 18, (Z)-2-[3-(4-Chloro-1,2-diphenyl-but-1-enyl)phenoxy]ethanol], the Emax in the data set on MCF-7 cells (setting [3]) amounted to 30%. Besides, the “Estrogenic and antiestrogenic action (in words)” value in data set [2] is “weak estrogenic and no antiestrogenic action”.
Consider `CN(C)CCSc1ccc(/C(=C(/CCCl)c2ccccc2)c2ccccc2)cc1` [No. 32, (Z)-1-[4-(2-Dimethylaminoethylsulfanyl)phenyl]-1,2-diphenyl-4-chloro-but-1-ene], for which the cytotoxicity at 10 µM in the data set with MCF-7 cells (With estradiol (E2)) came to 90%; in the data set on MCF-7 cells (Without estradiol (E2)), 86%. Moreover, in the data set with MCF-7 cells (With estradiol (E2), 1 μM), the inhibition at 1 µM was found to be 0%. Besides, the Emax with MCF-7 cells (setting [3]) stood at 11%. For the same molecule, the “Estrogenic and antiestrogenic action (in words)” value in data set [2] is “weak estrogenic and no antiestrogenic action”.
As for `CN(C)CCOc1cccc(/C(=C(/CCCl)c2ccccc2)c2ccccc2)c1` [No. 33, (Z)-{2-[3-(4-Chloro-1,2-diphenylbut-1-enyl)phenoxy]ethyl}dimethylamine], the “Effect on cholesterol (in words)” value in data set [1] is recorded as “decrease cholesterol”. For the same molecule, the Emax in the data set with MCF-7 cells (setting [3]) stood at 20%. Also, the “Cytotoxic action (in words)” value in the data set with MCF-7 cells (Table 2) is “weak”.
Take `OCCSc1ccc(/C(=C(/CCCl)c2ccccc2)c2ccccc2)cc1` [No. 36, (Z)-2-[4-(4-Chloro-1,2-diphenyl-but-1-enyl)-phenylsulfanyl]ethanol]: the cytotoxicity at 10 µM in the data set on MCF-7 cells (With estradiol (E2)) amounted to 37%; in the data set with MCF-7 cells (Without estradiol (E2)), 17%. In the data set with MCF-7 cells (With estradiol (E2), 1 μM), the inhibition at 1 µM was 13%. Moreover, in the data set with MCF-7 cells (setting [3]), the Emax came to 8%. Moreover, the “Estrogenic and antiestrogenic action (in words)” value in data set [2] was “weak estrogenic and no antiestrogenic action”.
On to `C#CCN(C)CCOc1ccc(/C(=C(/CCCl)c2ccccc2)c2ccccc2)cc1` [No. 44, (Z)-{2-[4-(4-Chloro-1,2-diphenylbut-1-enyl)phenoxy]ethyl}-methylprop-2-ynylamine], for which the cytotoxicity at 10 µM in the data set with MCF-7 cells (With estradiol (E2)) was 95%; in the data set on MCF-7 cells (Without estradiol (E2)), 78%. Besides, the inhibition at 1 µM in the data set with MCF-7 cells (With estradiol (E2), 1 μM) was 8%. Besides, the Emax in the data set on MCF-7 cells (setting [3]) came out at 24%. In addition, in data set [2], the “Estrogenic and antiestrogenic action (in words)” value was “weak estrogenic and no antiestrogenic action”.
Consider “E-3-(4-Chloro-1-{4-[2-(2-hydroxyethoxy)ethoxy]phenyl}-2-phenylbut-1-enyl)phenol [Example 11]”, for which the “Antagonism at 1 μM (% of full antagonism)” value in the data set with MCF-7 cells (With estradiol (E2), 1 μM) is reported as 0 % of full antagonism. For the same molecule, the figures for the “Maximal Cell Kill (% fraction of dead cells)” value in the data set on MCF-7 cells (With estradiol (E2)) and in the data set on MCF-7 cells (Without estradiol (E2)) were 55 % fraction of dead cells and 26 % fraction of dead cells, respectively. Moreover, the “Maximal Agonism (% of E2)” value in the data set on MCF-7 cells (setting [3]) is reported as 14 % of E2. Also, the “Estrogenic and antiestrogenic action (in words)” value in data set [2] is “weak estrogenic and no antiestrogenic action”.
